Measurements: PubChem BioAssay (NCI)
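Briefly, cells in 96-well plates were exposed to five compound concentrations for 48 h, and endpoints were estimated by linear interpolation. TGI marks complete inhibition of growth.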

Tests used:
Test in all cases: NCI tumour cell line growth inhibition, 48 h
[1] = system: SR leukemia
[2] = system: MOLT-4 leukemia
[3] = system: MDA-MB-435
[4] = system: IGROV1 ovarian
[5] = system: CCRF-CEM leukemia
[6] = system: MDA-MB-231 breast
[7] = system: UACC-62 melanoma
[8] = system: UO-31 renal
[9] = system: HCT-15 colon
[10] = system: HL-60(TB) leukemia
[11] = system: HOP-62 NSCLC
[12] = system: NCI-H23 lung
[13] = system: SK-MEL-2 melanoma
[14] = system: MALME-3M melanoma
[15] = system: A549 NSCLC
[16] = system: NCI-H226 lung
[17] = system: HCT-116 colon
[18] = system: HCC-2998 colon
[19] = system: RXF 393 renal
[20] = system: MCF7 breast

Measured: TGI

Cc1c2cnccc2nc2[nH]c3ccncc3c12
6.9 µM: [12]
28.8 µM: [8] | [9]
14.1 µM: [14]
27.6 µM: [3] | [13]
20.4 µM: [4]
32.6 µM: [5]
18.4 µM: [11]
61.9 µM: [10]
41.5 µM: [7]
11.5 µM: [1]
> 100 µM: [2] | [6] | [15]

CO[C@@H](c1ccccc1)[C@H](O)[C@](O)(c1ccccc1)P(=O)(OC)OC
> 100 µM: [1] | [2] | [3] | [16] | [4] | [5] | [6] | [7] | [17] | [8] | [18] | [9] | [19] | [10] | [12] | [13] | [14] | [15]

Cc1ccc(NC(=O)CC(=O)n2nc(C)c(N=Nc3ccc(S(=O)(=O)CCOS(=O)(=O)O)cc3)c2C)cc1
> 100 µM: [2] | [3] | [16] | [4] | [5] | [6] | [7] | [17] | [8] | [18] | [19] | [10] | [11] | [12] | [13] | [14] | [15] | [20]

CN(C)C(=C1c2cc([N+](=O)[O-])ccc2-c2ccc([N+](=O)[O-])cc21)N(C)C
> 100 µM: [2] | [3] | [16] | [4] | [5] | [6] | [7] | [17] | [8] | [18] | [9] | [19] | [11] | [12] | [13] | [14] | [15] | [20]

CC(C)=CCC/C(C)=C/Cc1c(O)ccc2c1[nH]c1cc(O)c(C)cc12
> 25 µM: [1] | [2] | [16] | [4] | [5] | [7] | [17] | [8] | [18] | [9] | [19] | [10] | [13] | [14] | [15]
23.4 µM: [11]

CN1CN(c2ccccc2)C2(CCN(CCCC(=O)c3cccs3)CC2)C1=O
> 100 µM: [1] | [2] | [16] | [4] | [5] | [6] | [7] | [17] | [8] | [9] | [19] | [10] | [12] | [14] | [15]
72.6 µM: [20]
38.9 µM: [18]
37.4 µM: [11]

CCOC(=O)CN1CCSC1=NC#N
> 100 µM: [2] | [16] | [4] | [5] | [7] | [17] | [8] | [18] | [9] | [19] | [10] | [11] | [12] | [13] | [14] | [15] | [20]
